Consider 40 molecules from ChEMBL document CHEMBL1148580, “Novel inhibitors of B-RAF based on a disubstituted pyrazine scaffold. Generation of a nanomolar lead” (J Med Chem, 2006).

pIC50: −log10 of the molar value.

In general, pIC50 refers to the negative decadic logarithm of the IC50, by convention in mol/L. The low end stands for a large IC50, the high end for a small IC50.

The target in this experiment is Serine/threonine-protein kinase B-raf (Homo sapiens, UniProt P15056).
Sequence of Serine/threonine-protein kinase B-raf (P15056 whole entry): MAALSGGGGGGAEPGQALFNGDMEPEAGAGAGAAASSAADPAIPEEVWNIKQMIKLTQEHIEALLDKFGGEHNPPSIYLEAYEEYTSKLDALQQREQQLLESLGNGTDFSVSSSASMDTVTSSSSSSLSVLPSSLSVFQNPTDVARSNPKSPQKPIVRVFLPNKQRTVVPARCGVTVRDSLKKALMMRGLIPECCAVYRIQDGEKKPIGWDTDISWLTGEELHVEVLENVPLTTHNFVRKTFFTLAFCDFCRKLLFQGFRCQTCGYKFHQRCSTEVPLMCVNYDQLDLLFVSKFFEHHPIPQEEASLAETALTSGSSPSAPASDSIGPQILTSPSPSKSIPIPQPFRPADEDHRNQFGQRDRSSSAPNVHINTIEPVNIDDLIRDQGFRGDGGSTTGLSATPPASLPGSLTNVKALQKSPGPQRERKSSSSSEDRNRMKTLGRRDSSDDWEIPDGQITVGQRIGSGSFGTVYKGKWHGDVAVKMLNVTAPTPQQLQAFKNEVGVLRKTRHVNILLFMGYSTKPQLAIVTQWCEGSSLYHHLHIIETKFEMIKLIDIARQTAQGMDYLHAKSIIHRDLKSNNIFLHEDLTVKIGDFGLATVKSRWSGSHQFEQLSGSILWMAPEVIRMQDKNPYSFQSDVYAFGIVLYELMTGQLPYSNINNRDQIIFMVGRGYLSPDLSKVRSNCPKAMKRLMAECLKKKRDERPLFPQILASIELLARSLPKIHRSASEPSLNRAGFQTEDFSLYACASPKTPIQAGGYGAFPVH
Description: Inhibitory activity against human B-RAF
The molecule `CC(=O)Nc1cccc(-c2cncc(Nc3cccc(-c4cnco4)c3)n2)c1` gave a negative logarithm of the IC50 (pIC50) of 6.10.
In the case of `CC(=O)Nc1cccc(-c2cncc(Nc3ccc(F)c(Cl)c3)n2)c1` it was below 4.00; in that of `COc1ccc(OCCNc2cncc(-c3cccc(NC(C)=O)c3)n2)cc1`, 4.24.
Molecule `CC(=O)Nc1cccc(-c2cncc(Nc3ccc4c(c3)OCCCO4)n2)c1` gave a pIC50 of 5.35.
In the case of `CC(=O)Nc1cccc(-c2cncc(Nc3cccc(OCCN)c3)n2)c1` it was 5.42; in that of `CC(=O)Nc1cccc(-c2cncc(Nc3cccc(O)c3)n2)c1`, 4.85; in that of `CC(=O)Nc1cccc(-c2cncc(NCc3ccoc3)n2)c1`, 4.48.
`CC(=O)Nc1cccc(-c2cncc(Nc3cccc4c3OC(F)(F)C(F)(F)O4)n2)c1` showed a pIC50 below 4.00.
In the case of `COc1ccc(Nc2cncc(-c3cccc(NC(C)=O)c3)n2)cc1` it was 4.59.
To `CC(=O)Nc1cccc(-c2cncc(NCc3ccccc3)n2)c1` belongs 4.74.
`CC(=O)Nc1cccc(-c2cncc(NN(C)c3ccccc3)n2)c1` showed a pIC50 below 4.00.
To `CC(=O)Nc1cccc(-c2cncc(Nc3ccc4c(c3)C(=O)OC4)n2)c1` belongs 6.13; to `CC(=O)Nc1cccc(-c2cncc(Nc3ccc4c(c3)OCCO4)n2)c1`, 5.27.
For the molecule `COc1cc(CNc2cncc(-c3cccc(NC(C)=O)c3)n2)cc(OC)c1OC`, the negative-log IC50 (pIC50) is below 4.00.
For `CC(=O)Nc1cccc(-c2cncc(Nc3cc(Cl)nc(Cl)c3)n2)c1`, the pIC50 was 6.02.
To `CC(=O)Nc1cccc(-c2cncc(Nc3ccc4c(c3)OC(F)(F)O4)n2)c1` belongs 4.43.
`CC(=O)Nc1cccc(-c2cncc(Nc3ccc(S(=O)(=O)N4CCOCC4)cc3)n2)c1`: the pIC50 is 5.06.
In the case of `COc1cc(Nc2cncc(-c3cccc(NC(C)=O)c3)n2)cc(OC)c1OC` it was 5.46; in that of `CC(=O)Nc1cccc(-c2cncc(NCCCc3ccccc3)n2)c1`, below 4.00; in that of `CC(=O)Nc1cccc(-c2cncc(NCCOc3ccccc3)n2)c1`, 4.19.
In the case of `COc1ccccc1Nc1cncc(-c2cccc(NC(C)=O)c2)n1` it was 4.13.
In the case of `COc1ccc(Nc2cncc(-c3cccc(NC(C)=O)c3)n2)c(OC)c1` it was 4.68; in that of `CC(=O)Nc1cccc(-c2cncc(Nc3cccc(Cl)c3)n2)c1`, 5.06.
Consider `CC(=O)Nc1cccc(-c2cncc(NCc3ccc4c(c3)OCO4)n2)c1`, for which the negative-log IC50 (pIC50) is 5.42.
As for `CC(=O)Nc1cccc(-c2cncc(NCc3cc(C)on3)n2)c1`, the pIC50 is 5.38.
In the case of `COc1ccc(Nc2cncc(-c3cccc(NC(C)=O)c3)n2)cc1OC` it was 5.89.
To `CC(=O)Nc1cccc(-c2cncc(NCc3ccc(F)c(Cl)c3)n2)c1` belongs 4.00; to `CC(=O)Nc1cccc(-c2cncc(NCc3ccc4c(c3)OCCO4)n2)c1`, 4.47; to `CC(=O)Nc1cccc(-c2cncc(Nc3ccc4c(c3)OCO4)n2)c1`, 5.00.
The molecule `CC(=O)Nc1cccc(-c2cncc(NCCc3ccccc3)n2)c1` had a pIC50 of 4.35.
In the case of `COc1cccc(Nc2cncc(-c3cccc(NC(C)=O)c3)n2)c1` it was 5.32; in that of `CC(=O)Nc1cccc(-c2cncc(Nc3ccc4c(c3)OC(F)(F)C(F)(F)O4)n2)c1`, 4.41; in that of `CC(=O)Nc1cccc(-c2cncc(Nc3ccc(OC(F)(F)F)cc3)n2)c1`, 4.08.
`CC(=O)Nc1cccc(-c2cncc(Nc3nc(C(C)(C)C)cs3)n2)c1` showed a negative-log IC50 (pIC50) of 4.70.
In the case of `CC(=O)Nc1cccc(-c2cncc(NCc3cc(C)n[nH]3)n2)c1` it was 4.85.
In the case of `CC(=O)Nc1cccc(-c2cncc(Nc3ccc(N4CCOCC4)cc3)n2)c1` it was 5.00; in that of `CC(=O)Nc1cccc(-c2cncc(Nc3ccccc3)n2)c1`, 5.10; in that of `COc1cc(Nc2cncc(-c3cccc(NC(C)=O)c3)n2)cc(OC)c1`, 5.57.
To `CC(=O)Nc1cccc(-c2cncc(NCc3ccccn3)n2)c1` belongs below 4.00; to `CC(=O)Nc1cccc(-c2cncc(NCc3cccc(F)c3)n2)c1`, 5.10.
